{"source": "patent US9114149B2", "about": "“[CU(thp)4]n[X]-n compounds for the treatment of a broad range of human solid tumors, including refractory tumors” (Universita Degli Studi Di Padova, priority 2011, dated 2015)", "key": {"[1]": {"tested_on": "human foreskin (HFFF2) fibroblasts", "test": "Cytotoxicity towards human non-tumor cells, HFFF2", "assay_type": "cell-based", "details": "MTT test, 72 hrs"}, "PC-3": {"tested_on": "PC-3", "test": "MTT cytotoxicity, PC-3 (prostate)", "assay_type": "cell-based, human", "details": "MTT test, 72 hrs", "excerpt": "(§1) The in vitro antitumor activity of CP had been deeply evaluated in several human cancer cell lines by in vitro cytotoxicity assays. CP cytotoxicity has been detected in a large panel of human cell lines derived from a wide variety of solid tumors, including refractory tumors. In Table 1, the cytotoxicity parameters IC50 (that is the median growth inhibitory concentrations calculated from dose-survival curves via MTT test) are tabulated.\n(§2) Cell lines representative of lung (H157, U1810, U1285, Calu-1), pancreas (MIA PaCa-2, BxPC-3, AsPC-1, Capan-1), liver (Huh-7, Hep 3B, SK-Hep-1), oesophagus (OE33, OE21), oesophagus/gastric cardia (OE19), stomach (BGC-823, AGS), colon (HCT-116, T84, COLO 205), breast (MDA-MB-231, SK-BR-3), cervix (CaSki, C-33 A) ovarian (A2780, SK-OV-3, IGROV1), prostate (LnCaP, PC-3) cancers along with melanoma (MEWO, G361, C-32), neuroblastoma (SH-SY5Y, SK-N-AS, IMR-32) and osteosarcoma (U-2 OS, MG-63) have been treated with increasing concentration of CP for 72 hrs."}, "Huh-7": {"tested_on": "Huh-7", "test": "MTT cytotoxicity, Huh-7 (liver)", "assay_type": "cell-based, human", "details": "MTT test, 72 hrs", "excerpt": "as §1, §2"}, "U-2 OS": {"tested_on": "U-2 OS", "test": "MTT cytotoxicity, U-2 OS (bone)", "assay_type": "cell-based, human", "details": "MTT test, 72 hrs", "excerpt": "as §1, §2"}, "IGROV1": {"tested_on": "IGROV1", "test": "MTT cytotoxicity, IGROV1 (ovary)", "assay_type": "cell-based, human", "details": "MTT test, 72 hrs", "excerpt": "as §1, §2"}, "[2]": {"tested_on": "human colon adenocarcinoma cells sensitive (HCT-116)", "test": "Cross resistance MTT test, HCT-116 (OXP sensitive)", "assay_type": "cell-based", "details": "72 h, probit analysis"}, "AsPC-1": {"tested_on": "AsPC-1", "test": "MTT cytotoxicity, AsPC-1 (pancreas)", "assay_type": "cell-based, human", "details": "MTT test, 72 hrs", "excerpt": "as §1, §2"}, "SK-BR-3": {"tested_on": "SK-BR-3", "test": "MTT cytotoxicity, SK-BR-3 (breast)", "assay_type": "cell-based, human", "details": "MTT test, 72 hrs", "excerpt": "as §1, §2"}, "CaSki": {"tested_on": "CaSki", "test": "MTT cytotoxicity, CaSki (cervix)", "assay_type": "cell-based, human", "details": "MTT test, 72 hrs", "excerpt": "as §1, §2"}, "BxPC-3": {"tested_on": "BxPC-3", "test": "MTT cytotoxicity, BxPC-3 (pancreas)", "assay_type": "cell-based, human", "details": "MTT test, 72 hrs", "excerpt": "as §1, §2"}, "OE19": {"tested_on": "OE19", "test": "MTT cytotoxicity, OE19 (oesophagus/gastric cardia)", "assay_type": "cell-based, human", "details": "MTT test, 72 hrs", "excerpt": "as §1, §2"}, "MIA PaCa-2": {"tested_on": "MIA PaCa-2", "test": "MTT cytotoxicity, MIA PaCa-2 (pancreas)", "assay_type": "cell-based, human", "details": "MTT test, 72 hrs", "excerpt": "as §1, §2"}, "MEWO": {"tested_on": "MEWO", "test": "MTT cytotoxicity, MEWO (skin)", "assay_type": "cell-based, human", "details": "MTT test, 72 hrs", "excerpt": "as §1, §2"}, "Hep 3B": {"tested_on": "Hep 3B", "test": "MTT cytotoxicity, Hep 3B (liver)", "assay_type": "cell-based, human", "details": "MTT test, 72 hrs", "excerpt": "as §1, §2"}, "SK-OV-3": {"tested_on": "SK-OV-3", "test": "MTT cytotoxicity, SK-OV-3 (ovary)", "assay_type": "cell-based, human", "details": "MTT test, 72 hrs", "excerpt": "as §1, §2"}, "SK-Hep-1": {"tested_on": "SK-Hep-1", "test": "MTT cytotoxicity, SK-Hep-1 (liver)", "assay_type": "cell-based, human", "details": "MTT test, 72 hrs", "excerpt": "as §1, §2"}, "C-32": {"tested_on": "C-32", "test": "MTT cytotoxicity, C-32 (skin)", "assay_type": "cell-based, human", "details": "MTT test, 72 hrs", "excerpt": "as §1, §2"}, "G361": {"tested_on": "G361", "test": "MTT cytotoxicity, G361 (skin)", "assay_type": "cell-based, human", "details": "MTT test, 72 hrs", "excerpt": "as §1, §2"}, "Capan-1": {"tested_on": "Capan-1", "test": "MTT cytotoxicity, Capan-1 (pancreas)", "assay_type": "cell-based, human", "details": "MTT test, 72 hrs", "excerpt": "as §1, §2"}, "T84": {"tested_on": "T84", "test": "MTT cytotoxicity, T84 (colon)", "assay_type": "cell-based, human", "details": "MTT test, 72 hrs", "excerpt": "as §1, §2"}, "A2780": {"tested_on": "A2780", "test": "MTT cytotoxicity, A2780 (ovary)", "assay_type": "cell-based, human", "details": "MTT test, 72 hrs", "excerpt": "as §1, §2"}, "Calu-1": {"tested_on": "Calu-1", "test": "MTT cytotoxicity, Calu-1 (lung)", "assay_type": "cell-based, human", "details": "MTT test, 72 hrs", "excerpt": "as §1, §2"}, "AGS": {"tested_on": "AGS", "test": "MTT cytotoxicity, AGS (stomach)", "assay_type": "cell-based, human", "details": "MTT test, 72 hrs", "excerpt": "as §1, §2"}, "H157": {"tested_on": "H157", "test": "MTT cytotoxicity, H157 (lung)", "assay_type": "cell-based, human", "details": "MTT test, 72 hrs", "excerpt": "as §1, §2"}, "[3]": {"tested_on": "human colon adenocarcinoma cells resistant (HCT-116 OXP) to OXP"}, "[4]": {"tested_on": "human lung (MRC-5) fibroblasts", "test": "Cytotoxicity towards human non-tumor cells, MRC-5", "assay_type": "cell-based", "details": "MRC-5 human lung fibroblasts (non-tumor); MTT test, 72 hrs"}, "COLO 205": {"tested_on": "COLO 205", "test": "MTT cytotoxicity, COLO 205 (colon)", "assay_type": "cell-based, human", "details": "MTT test, 72 hrs", "excerpt": "as §1, §2"}, "MDA-MB-231": {"tested_on": "MDA-MB-231", "test": "MTT cytotoxicity, MDA-MB-231 (breast)", "assay_type": "cell-based, human", "details": "MTT test, 72 hrs", "excerpt": "as §1, §2"}, "HCT-116": {"tested_on": "HCT-116", "test": "MTT cytotoxicity, HCT-116 (colon)", "assay_type": "cell-based, human", "details": "MTT test, 72 hrs", "excerpt": "as §1, §2"}, "[5]": {"tested_on": "CDDP sensitive and resistant human cancer cell lines", "details": "also CDDP resistant cell lines; cited from earlier work"}}, "data": [{"smiles": "O=C1[O][Pt]2([NH][C@@H]3CCCC[C@H]3[NH]2)[O]C1=O", "note": "[OXP, oxaliplatin]", "values": [{"measurement": "IC50", "setting": "[1]", "result": "25.5 ± 1.65", "unit": "µM"}, {"measurement": "IC50", "setting": "PC-3", "result": "5.23 ± 1.62", "unit": "µM"}, {"measurement": "IC50", "setting": "Huh-7", "result": "1.12 ± 1.05", "unit": "µM"}, {"measurement": "IC50", "setting": "U-2 OS", "result": "0.72 ± 0.24", "unit": "µM"}, {"measurement": "IC50", "setting": "IGROV1", "result": "2.56 ± 2.14", "unit": "µM"}, {"measurement": "IC50", "setting": "[2]", "result": "1.2 ± 0.1", "unit": "µM"}, {"measurement": "IC50", "setting": "AsPC-1", "result": "23.2 ± 2.64", "unit": "µM"}, {"measurement": "IC50", "setting": "SK-BR-3", "result": "8.98 ± 2.64", "unit": "µM"}, {"measurement": "IC50", "setting": "CaSki", "result": "26.1 ± 3.01", "unit": "µM"}, {"measurement": "IC50", "setting": "BxPC-3", "result": "4.15 ± 1.06", "unit": "µM"}, {"measurement": "IC50", "setting": "OE19", "result": "8.76 ± 1.51", "unit": "µM"}, {"measurement": "IC50", "setting": "MIA PaCa-2", "result": "16.8 ± 1.89", "unit": "µM"}, {"measurement": "IC50", "setting": "MEWO", "result": "6.43 ± 1.54", "unit": "µM"}, {"measurement": "IC50", "setting": "Hep 3B", "result": "4.32 ± 1.33", "unit": "µM"}, {"measurement": "IC50", "setting": "SK-OV-3", "result": "1.43 ± 1.03", "unit": "µM"}, {"measurement": "IC50", "setting": "SK-Hep-1", "result": "17.8 ± 2.63", "unit": "µM"}, {"measurement": "IC50", "setting": "C-32", "result": "1.12 ± 0.42", "unit": "µM"}, {"measurement": "IC50", "setting": "G361", "result": "1.14 ± 0.31", "unit": "µM"}, {"measurement": "IC50", "setting": "Capan-1", "result": "3.17 ± 0.97", "unit": "µM"}, {"measurement": "IC50", "setting": "T84", "result": "0.33 ± 0.09", "unit": "µM"}, {"measurement": "IC50", "setting": "A2780", "result": "0.55 ± 0.22", "unit": "µM"}, {"measurement": "IC50", "setting": "Calu-1", "result": "4.23 ± 1.53", "unit": "µM"}, {"measurement": "IC50", "setting": "AGS", "result": "5.32 ± 1.63", "unit": "µM"}, {"measurement": "IC50", "setting": "H157", "result": "25.3 ± 0.52", "unit": "µM"}, {"measurement": "IC50", "setting": "[3]; HCT-116 OXP (OXP resistant), MTT test, 72 h, probit analysis", "result": "23.3 ± 1", "unit": "µM"}, {"measurement": "R.F. (Resistant factor)", "setting": "[3]; IC50 resistant/parent line: HCT-116 OXP / HCT-116", "result": 19.4}, {"measurement": "IC50", "setting": "[4]", "result": "23.1 ± 1.25", "unit": "µM"}, {"measurement": "IC50", "setting": "COLO 205", "result": "21.1 ± 2.66", "unit": "µM"}, {"measurement": "IC50", "setting": "MDA-MB-231", "result": "4.35 ± 1.07", "unit": "µM"}, {"measurement": "IC50", "setting": "HCT-116", "result": "0.76 ± 0.58", "unit": "µM"}]}, {"smiles": "Cc1cc(C)n(C(C(=O)[O][Cu]([PH](CO)(CO)CO)[PH](CO)(CO)CO)n2nc(C)cc2C)n1", "note": "[[HC(CO2)(pz^Me2)2]Cu[P(CH2OH)3]2]", "values": [{"measurement": "antitumor activity in vitro", "setting": "[5]", "result": "significant antitumor activity in vitro"}]}]}
